Test results published in patent publication US6998244B1, “Cloning and expression of a novel 5-HT4 receptor” (Janssen Pharmaceutica N.V., priority 1999, dated 2006).

What was measured:
human 5-HT4(h) receptor [1] = target: T1, human 5-HT4(h) receptor (Homo sapiens, UniProt Q13639); experiment: Competition with […] [3H]GR113808 binding, membranes of transfected COS-7 cells; details: for pKi: Human 5-HT4 h receptor in Cos-7 cells, Cheng and Prusoff
human 5-HT4(b) receptor [2] = target: T2, human 5-HT4(b) receptor (Homo sapiens, UniProt Q13639); experiment: as above; details: for pKi / Ki: Human 5-HT4 b receptor in Cos-7 cells, Cheng and Prusoff
T2 construct: expressed in transfected cells; host or cells: COS-7 cells, transient transfection with a pcDNA3 construct
T2 sequence (Q13639 whole entry): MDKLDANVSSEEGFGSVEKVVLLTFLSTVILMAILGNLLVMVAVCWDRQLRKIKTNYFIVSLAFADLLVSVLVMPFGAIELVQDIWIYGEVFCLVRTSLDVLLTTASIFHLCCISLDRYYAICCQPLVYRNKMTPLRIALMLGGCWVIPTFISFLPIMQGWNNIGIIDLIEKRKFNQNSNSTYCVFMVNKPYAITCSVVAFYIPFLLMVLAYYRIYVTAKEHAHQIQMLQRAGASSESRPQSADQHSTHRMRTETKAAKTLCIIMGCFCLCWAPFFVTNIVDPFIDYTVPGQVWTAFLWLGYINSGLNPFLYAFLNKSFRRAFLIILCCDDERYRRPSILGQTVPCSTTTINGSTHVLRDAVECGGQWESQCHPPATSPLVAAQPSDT

human 5-HT4(a) receptor [3] = target: T3, human 5-HT4(a) receptor (Homo sapiens, UniProt Q13639); experiment: as above; details: for pKi / Ki: Human 5-HT4 a receptor in Cos-7 cells, Cheng and Prusoff
T3 construct: expressed in transfected cells; host or cells: COS-7 cells, transient transfection with a pcDNA3 construct
T3 sequence (Q13639 1-387 isoform Q13639-2): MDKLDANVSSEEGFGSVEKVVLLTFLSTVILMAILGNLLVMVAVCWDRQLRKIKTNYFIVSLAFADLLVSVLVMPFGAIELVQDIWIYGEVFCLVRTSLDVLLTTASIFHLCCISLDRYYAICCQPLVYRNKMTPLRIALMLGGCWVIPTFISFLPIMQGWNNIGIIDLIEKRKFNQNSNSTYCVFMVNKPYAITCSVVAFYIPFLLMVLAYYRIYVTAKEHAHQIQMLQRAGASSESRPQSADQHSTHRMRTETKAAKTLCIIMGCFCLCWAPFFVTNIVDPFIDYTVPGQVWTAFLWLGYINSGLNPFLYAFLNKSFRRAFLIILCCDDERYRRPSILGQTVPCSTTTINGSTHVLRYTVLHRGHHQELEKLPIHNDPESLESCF

[4] = tested on: COS-7 cells transfected with the empty vector; experiment: cAMP assay, negative control cells; assay type: cell-based; details: stimulation with 10^−6 M of each agonist
Source text: Results represent the increase of cAMP after stimulation by agonist since basal level has been removed. […] The efficacy and potency of the different agonists to trigger the cellular response was estimated and compared for the three different variants. […] No difference in the pEC50 was noticed. The cAMP assay has been performed also for COS-7 cells transfected with the empty vector as a negative control.
These experiments were done using the NEN adenylyl cyclase activation flashplate assay, according to the supplier. Cells were removed from the Petri dishes with 3 ml EDTA (0.04% w/v) and resuspended with phosphate buffered saline without Ca^2+ and Mg^2+. The cells were centrifuged at 1500 g for 5 minutes and the supernatants were removed. The pellet was resuspend in stimulation buffer and diluted to a concentration of 10^6 cells/ml, 50 μl thereof were added per well of the flashplate (50000 cells/well). Compounds were diluted in PBS containing 1 mM pargyline and 1 mM paroxetine, and 50 μl of the resulting mixture was added per well, followed by an incubation for 20 minutes at […]. […] The experiment was stopped and a direct cAMP[^125I] detection assay was performed by adding 100 μl of detection mix per well. After incubation for 24 h at room temperature, counting was done in a Topcount (Packard).

human 5-HT4(h) receptor [5] = target: T1, human 5-HT4(h) receptor; experiment: cAMP formation in transiently transfected COS-7 cells (flashplate assay); assay type: cell-based; design: expressed in transfected cells; host or cells: COS-7 cells, transient transfection with 5-HT4(h)/pcDNA3
Procedure: (§1) Results represent the increase of cAMP after stimulation by agonist since basal level has been removed. […] The efficacy and potency of the different agonists to trigger the cellular response was estimated and compared for the three different variants.
(§2) These experiments were done using the NEN adenylyl cyclase activation flashplate assay, according to the supplier. Cells were removed from the Petri dishes with 3 ml EDTA (0.04% w/v) and resuspended with phosphate buffered saline without Ca^2+ and Mg^2+. The cells were centrifuged at 1500 g for 5 minutes and the supernatants were removed. The pellet was resuspend in stimulation buffer and diluted to a concentration of 10^6 cells/ml, 50 μl thereof were added per well of the flashplate (50000 cells/well). Compounds were diluted in PBS containing 1 mM pargyline and 1 mM paroxetine, and 50 μl of the resulting mixture was added per well, followed by an incubation for 20 minutes at 370° C. […] After incubation for 24 h at room temperature, counting was done in a Topcount (Packard).

human 5-HT4(a) receptor [6] = target: T3, human 5-HT4(a) receptor; experiment: as above; assay type: cell-based; details: 5-HT4 variant a, n = 5, cAMP formation
Procedure: as §1, §2

human 5-HT4(b) receptor [7] = target: T2, human 5-HT4(b) receptor; experiment: as above; assay type: cell-based; details: 5-HT4 variant b, n = 8, cAMP formation
Procedure: as §1, §2

[8] = tested on: COS-7 cells transfected with the vector alone; experiment: Radioligand binding, negative control cells; details: 3 independent transfections
Source text: The same result was obtained for the Bmax values found for the high affinity sites of the 2 reference 5-HT receptor variants a and b. […] Results are the mean of three independent transfections.

5-HT4(a) variant = target: T4, 5-HT4(a) variant (Homo sapiens, UniProt Q13639); experiment: Radioligand saturation binding, membranes of transfected COS-7 cells
T4 construct: expressed in transfected cells; host or cells: COS-7 cells, transient transfection with a pcDNA3 construct
T4 sequence (Q13639 1-387 isoform Q13639-2): as above
Source text: (§3) In order to compare the pharmacological properties of the 5-HT4(h) variant with those of the previously cloned 5-HT4(a) and b variant, the three corresponding pcDNA3 expression constructs were transiently transfected into COS cells. The receptors were investigated by radioligand binding assays on membrane preparations.

5-HT4(b) variant = target: T5, 5-HT4(b) variant (Homo sapiens, UniProt Q13639); experiment: as above
T5 construct: expressed in transfected cells; host or cells: COS-7 cells, transient transfection with a pcDNA3 construct
Source text: as §3

h 5-HT4(h) = target: T6, h 5-HT4(h) (Homo sapiens, UniProt Q13639); experiment: as above; details: h variant, 3 independent transfections
T6 construct: expressed in transfected cells; host or cells: COS-7 cells, transient transfection with 5-HT4(h)/pcDNA3
T6 sequence (Q13639 1-402 isoform Q13639-6): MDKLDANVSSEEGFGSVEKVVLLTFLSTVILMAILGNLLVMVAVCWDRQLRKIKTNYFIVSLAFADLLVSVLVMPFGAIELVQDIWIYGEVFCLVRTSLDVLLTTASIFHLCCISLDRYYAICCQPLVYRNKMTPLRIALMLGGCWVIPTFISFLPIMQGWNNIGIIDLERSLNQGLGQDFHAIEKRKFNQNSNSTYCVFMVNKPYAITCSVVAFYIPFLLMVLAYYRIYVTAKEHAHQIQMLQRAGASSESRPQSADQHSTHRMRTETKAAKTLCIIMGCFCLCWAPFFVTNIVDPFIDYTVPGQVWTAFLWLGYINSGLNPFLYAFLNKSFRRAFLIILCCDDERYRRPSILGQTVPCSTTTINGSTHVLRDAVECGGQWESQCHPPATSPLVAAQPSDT
Source text: as §3

[9] = 5-HT4 variant h, n = 3, cAMP formation

T1 sequence (Q13639 1-402 isoform Q13639-6): as above

Row | Structure (SMILES) | pKi (human 5-HT4(h) receptor [1]) | pKi (human 5-HT4(b) receptor [2]) | pKi (human 5-HT4(a) receptor [3]) | increase of the cAMP basal level [4] | % of 5HT max (+/− SD) (human 5-HT4(h) receptor [5]; [9]) [%] | % of 5HT max (+/− SD) (human 5-HT4(a) receptor [6]) [%] | % of 5HT max (+/− SD) (human 5-HT4(b) receptor [7]) [%] | other results
1 | COc1ccc2[nH]cc(CCN)c2c1 [5-MeOT] | 6.1 | 6.13 | 6.08 | – | – | – | – | –
2 | NCCc1c[nH]c2ccc(O)cc12 [5HT, 5-hydroxytryptamine] | – | – | – | no significant increase | 100 | 100 | 100 | –
3 | COc1cc(N)c(Cl)cc1C(=O)NC1CCN(CCCOc2ccc(F)cc2)CC1OC (stereo not drawn) [Cisapride] | – | – | – | no significant increase | – | – | – | –
4 | Cn1cc(C(=O)OCC2CCN(CCNS(C)(=O)=O)CC2)c2ccccc21 [GR113808] | 9.29 | 9.57 | 9.54 | – | 54.6 | 0 | 0 | pEC50 (+/1 SD) (human 5-HT4(h) receptor [5]; [9]): 7.95; effect at the 5-HT4(h) variant (agonist/antagonist) (human 5-HT4(h) receptor [5]; in words): agonistic effect
5 | CCOc1cc(N)c(Cl)cc1C(=O)NCC1CN(Cc2ccc(F)cc2)CCO1 (stereo not drawn) [Mosapride] | – | – | – | – | – | – | – | IC50 (human 5-HT4(h) receptor [1]): 282 nM; Ki (human 5-HT4(h) receptor [1]): 141 nM; IC50 (human 5-HT4(b) receptor [2]): 912 nM; Ki (human 5-HT4(b) receptor [2]): 661 nM; IC50 (human 5-HT4(a) receptor [3]): 331 nM; Ki (human 5-HT4(a) receptor [3]): 195 nM
6 | COCCCN1CCC(NC(=O)c2cc(Cl)c(N)c3c2OCC3)CC1 [Prucalopride] | – | – | – | no significant increase | 95 | 118 | 117.36 | –
7 | CCCCN1CCC(COC(=O)c2cc(Cl)c(N)c3c2OCCO3)CC1 [SB204070] | 10.38 | 10.04 | 10.15 | – | – | – | – | –
8 | CCCCCNC(=N)N/N=C/c1c[nH]c2ccc(OC)cc12 [SDZ-HTF919] | – | – | – | – | – | – | – | IC50 (human 5-HT4(h) receptor [1]): 35.5 nM; Ki (human 5-HT4(h) receptor [1]): 25.7 nM; IC50 (human 5-HT4(b) receptor [2]): 12.9 nM; Ki (human 5-HT4(b) receptor [2]): 8.13 nM; IC50 (human 5-HT4(a) receptor [3]): 8.32 nM; Ki (human 5-HT4(a) receptor [3]): 13.8 nM
9 | Cn1cc(C(=O)OCC2CCN(CCNS(C)(=O)=O)CC2)c2ccccc21 [[^3H]GR113808] | – | – | – | – | – | – | – | specific binding [8]: no specific binding; Kd (5-HT4(a) variant): 0.14 nM; Kd (5-HT4(b) variant): 0.19 nM; Kd (h 5-HT4(h)): 0.24 nM
